# Laboratory results as given in patent US9688624B2, “DP2 antagonist and uses thereof” (Brickell Biotech, Inc., priority 2010, dated 2017).
# Structures can show the parent of a compound that is named as a salt. Where two headings read alike, the source gives them in different places.
# Key:
# guinea pig DP2 receptor = guinea pig DP2 receptor (Cavia porcellus, UniProt H0W1T0); assay: In vitro DP2/CRTH2 radioligand ([3H]PGD2) membrane binding assay
# Experimental: (§1) Example 15: In Vitro DP2/CRTH2 Binding Assay
# The ability of Compound 1 to bind to the human DP2 receptor was assessed via a radioligand binding assay using [^3H]PGD2. HEK293 cells stably expressing recombinant human DP2 are resuspended in 10 mM Hepes, 7.4 containing 1 mM DTT, lysed and centrifuged at 75,000×g to pellet the membranes. The membranes are resuspended in 10 mM Hepes, 7.4 containing 1 mM DTT and 10% glycerol to approximately 5 mg protein/ml. Membranes (2-10 μg protein/well) are incubated in 96-well plates with 1 nM [^3H]PGD2 and Compound 1 in Assay Buffer (50 mM Hepes, 10 mM MnCl2, 1 mM EDTA, plus or minus 0.2% human serum albumin, pH 7.4) for 60 minutes at room temperature. The reactions are terminated by rapid filtration through Whatman GF/C glass fibre filter plates. The filter plates were pre-soaked in 0.33% polythylenimine for 30 minutes at room temperature then washed in Wash Buffer (50 mM Hepes, 0.5 M NaCl pH 7.4) prior to harvesting. After harvesting, the filter plates are washed 3 times with 1 ml cold Wash Buffer then dried. Scintillant is then added to the plates and the radioactivity retained on the filters is determined on a Packard TopCount (Perkin Elmer). Specific binding is determined as total radioactive binding minus non-specific binding in the presence of 10 μM PGD2. IC50s were determined using GraphPad prism analysis of drug titration curves. […]
# [1] = Plasma concentrations in guinea pig allergic asthma model; type: in vivo; settings: for concentration at 3 h: oral, 3 hours post dose, read-out: mean plasma Compound 1 concentration
# Experimental: Plasma Compound 1 concentrations were determined 3 hours and 24 hours post dose. […] At 60 mg/kg, a mean plasma concentration of 371.7±303.8 was observed 3 hours post dose. At 100 mg/kg, a mean plasma concentration of 360.8±131.3 was observed 3 hours post dose.
# mouse DP2 = mouse DP2 (Mus musculus (Mouse), UniProt Q9Z2J6); assay: In vitro DP2/CRTH2 radioligand ([3H]PGD2) membrane binding assay; settings: average
# Experimental: as §1
# (§2) The ability of Compound 1 to bind to the human DP2 receptor was assessed via a radioligand binding assay using [^3H]PGD2. HEK293 cells stably expressing recombinant human DP2 are resuspended in 10 mM Hepes, 7.4 containing 1 mM DTT, lysed and centrifuged at 75,000×g to pellet the membranes. The membranes are resuspended in 10 mM Hepes, 7.4 containing 1 mM DTT and 10% glycerol to approximately 5 mg protein/ml. Membranes (2-10 μg protein/well) are incubated in 96-well plates with 1 nM [^3H]PGD2 and Compound 1 in Assay Buffer (50 mM Hepes, 10 mM MnCl2, 1 mM EDTA, plus or minus 0.2% human serum albumin, pH 7.4) for 60 minutes at room temperature. The reactions are terminated by rapid filtration through Whatman GF/C glass fibre filter plates. The filter plates were pre-soaked in 0.33% polythylenimine for 30 minutes at room temperature then washed in Wash Buffer (50 mM Hepes, 0.5 M NaCl pH 7.4) prior to harvesting. After harvesting, the filter plates are washed 3 times with 1 ml cold Wash Buffer then dried. Scintillant is then added to the plates and the radioactivity retained on the filters is determined on a Packard TopCount (Perkin Elmer). Specific binding is determined as total radioactive binding minus non-specific binding in the presence of 10 μM PGD2. IC50s were determined using GraphPad prism analysis of drug titration curves. Mouse, rat and guinea pig DP2 receptors were also investigated.
# (§3) The binding potency of Compound 1 is only slightly shifted in the presence of species-specific serum albumin.
# rat DP2 = rat DP2 (Rattus norvegicus (Rat), UniProt Q6XKD3); assay: as above; settings: average
# Experimental: as §1, §2, §3
# [2] = Plasma exposure in satellite group of mouse allergic rhinitis model; type: in vivo; settings: Compound 2 10 mg/kg PO
# Experimental: Compound 2 was evaluated in a mouse model of ovalbumin (OVA)-induced allergic rhinitis in which nasal ovalbumin challenges to OVA-primed mice elicits an increase in sneezing and nasal rubs (Methods were adapted from those detailed in Nakaya, M., et al. 2006, Laboratory Investigation, 86:917-926). OVA-primed mice received an intranasal challenge of OVA daily for 5 consecutive days. The number of sneezes and nasal rubs were counted over an 8 minute recording session on days 1, 3 and 5 immediately following OVA challenge. OVA caused a significant increase in both sneezing behavior and nasal rubs when compared to intranasal phosphate buffered saline (PBS) challenge. […] The plasma exposure for Compound 1 measured in a satellite group was 1360 nM, 460 nM, 210 nM and 90 nM for time points 1, 2, 4, and 6 hr post-dose, respectively.
# DP2 receptor = DP2 receptor (Homo sapiens (Human), UniProt Q9Y5Y4); assay: Phase I single ascending dose study, ex vivo PGD2-induced blood eosinophil shape change (ESC); type: in vivo; settings: humans
# Experimental: Procedure Evaluate Effects of Compound 1 on Ex Vivo PGD2-Induced Blood Eosinophil Shape Change (ESC)
# Pre dose blood is drawn and challenged with PGD2 to determine baseline shape change as described above in Example 17. At varying times after dosing blood is drawn for both pharmacokinetic analyses of drug concentration in blood, and also for PGD2 challenge and eosinophil shape change determination. The extent of receptor blockage is determined from the relationship between drug blood concentration and percentage inhibition of eosinophil shape change.
# CYP1A2 = CYP1A2 (Homo sapiens (Human), UniProt P05177); assay: Extracellular cytochrome P450 inhibition (microsomes)
# [3] = system: allergen-induced asthma (OVA challenge); assay: Guinea pig allergic asthma (OVA) model; type: in vivo
# Experimental: Example 20: Guinea Pig Allergic Asthma Model
# Compound 2 was evaluated in a guinea pig OVA model in order to determine efficacy in a setting of allergen-induced asthma. As an early indication of a pharmacodynamic response animals were challenged with DK-PGD2 2 hours post OVA challenge (2.5 hours post Compound 2 administration) and blood was collected 30 minutes later to assess leukocytes counts. […] OVA challenge caused a significant influx of cells in bronchoalveolar lavage fluid at 23.5 hr post-dose; there was no difference between animals that received OVA only versus those that received OVA plus DK-PGD2. The majority of cells were eosinophils and macrophages with a small, but significant proportion of neutrophils.
# [4] = Phase I single ascending dose study, safety and tolerability; type: in vivo, human; settings: humans, capsule, 5 to 500 mg single doses
# Excerpt: To assess: (1) the safety and tolerability of single and multiple doses of Compound 2 following oral administration; and (2) the pharmacokinetics (PK) of Compound 2 after single and multiple doses; and (3) the effects of the pharmacodynamic (PD) responses in healthy subjects to Compound 2 as measured by a PGD2-induced eosinophil shape change assay (ESC).
# The Single Ascending Dose (SAD) study will include 6 cohorts with 8 subjects each, 6 receiving the active treatment and 2 receiving the placebo. The SAD study will explore doses of 5, 15, 50, 150, 300 and 500 mg/day. Compound 2 (Pattern 1) is administered as API in a Capsule, prepared on site at the clinical pharmacy (see Example 10). Safety monitoring will include: a “how do you feel” (HDYF) question, adverse events reporting, physical examinations, vital signs, ECG's, and a biological assessment (clinical chemistry, hematology and urinalysis). The decision to escalate to the next dose level will be based on the results of medical monitoring, and a blinded interim analysis of pharmacokinetic parameters (AUC, Cmax) and pharmacodynamic responses. Doses may be adjusted based on the occurrence of adverse events. Subjects will be followed on site for 72 hours after dose administration.
# Chain of mouse DP2 (Q9Z2J6 whole entry): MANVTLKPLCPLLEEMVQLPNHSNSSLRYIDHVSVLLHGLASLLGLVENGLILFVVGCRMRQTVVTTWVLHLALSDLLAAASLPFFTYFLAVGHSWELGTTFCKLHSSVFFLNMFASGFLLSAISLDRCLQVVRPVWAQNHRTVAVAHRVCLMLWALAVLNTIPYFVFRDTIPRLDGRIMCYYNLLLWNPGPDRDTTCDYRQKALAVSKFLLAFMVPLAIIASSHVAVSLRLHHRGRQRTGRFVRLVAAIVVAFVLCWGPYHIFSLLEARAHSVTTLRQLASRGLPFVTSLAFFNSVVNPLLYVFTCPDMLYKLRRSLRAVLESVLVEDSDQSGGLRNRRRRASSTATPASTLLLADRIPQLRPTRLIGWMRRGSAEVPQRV
# Chain of rat DP2 (Q6XKD3 whole entry): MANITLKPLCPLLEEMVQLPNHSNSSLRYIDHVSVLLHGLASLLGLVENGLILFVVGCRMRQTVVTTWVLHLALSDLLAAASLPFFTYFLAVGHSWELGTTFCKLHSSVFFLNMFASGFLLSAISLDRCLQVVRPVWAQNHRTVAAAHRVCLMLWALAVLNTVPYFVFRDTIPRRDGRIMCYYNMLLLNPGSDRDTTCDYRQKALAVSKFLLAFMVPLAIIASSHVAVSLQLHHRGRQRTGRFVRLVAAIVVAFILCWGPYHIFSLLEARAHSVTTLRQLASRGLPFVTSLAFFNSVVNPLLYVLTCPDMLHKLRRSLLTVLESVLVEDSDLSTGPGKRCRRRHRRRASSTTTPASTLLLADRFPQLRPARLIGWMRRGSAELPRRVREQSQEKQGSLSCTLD
# Chain of guinea pig DP2 receptor (H0W1T0 1-391): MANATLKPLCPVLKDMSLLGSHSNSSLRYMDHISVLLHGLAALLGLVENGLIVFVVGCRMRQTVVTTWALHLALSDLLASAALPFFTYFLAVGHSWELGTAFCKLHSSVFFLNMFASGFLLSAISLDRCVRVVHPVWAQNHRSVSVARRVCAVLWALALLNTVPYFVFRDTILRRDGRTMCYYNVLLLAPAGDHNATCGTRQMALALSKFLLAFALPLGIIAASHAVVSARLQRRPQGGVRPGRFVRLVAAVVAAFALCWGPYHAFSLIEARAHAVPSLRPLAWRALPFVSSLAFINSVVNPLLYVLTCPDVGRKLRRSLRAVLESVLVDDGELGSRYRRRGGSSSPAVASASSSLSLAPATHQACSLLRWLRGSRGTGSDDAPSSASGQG
# Chain of DP2 receptor (Q9Y5Y4 whole entry): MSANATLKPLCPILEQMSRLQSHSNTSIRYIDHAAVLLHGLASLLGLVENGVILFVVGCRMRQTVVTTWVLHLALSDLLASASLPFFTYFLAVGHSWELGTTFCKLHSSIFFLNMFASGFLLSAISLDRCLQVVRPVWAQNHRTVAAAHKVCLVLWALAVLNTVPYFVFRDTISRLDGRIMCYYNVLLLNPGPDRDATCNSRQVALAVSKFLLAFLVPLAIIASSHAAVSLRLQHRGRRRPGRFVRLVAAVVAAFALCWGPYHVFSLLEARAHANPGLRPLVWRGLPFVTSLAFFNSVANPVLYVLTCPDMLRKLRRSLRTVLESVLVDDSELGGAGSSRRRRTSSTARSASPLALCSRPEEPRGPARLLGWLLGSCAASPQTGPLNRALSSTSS
# Chain of CYP1A2 (P05177 whole entry): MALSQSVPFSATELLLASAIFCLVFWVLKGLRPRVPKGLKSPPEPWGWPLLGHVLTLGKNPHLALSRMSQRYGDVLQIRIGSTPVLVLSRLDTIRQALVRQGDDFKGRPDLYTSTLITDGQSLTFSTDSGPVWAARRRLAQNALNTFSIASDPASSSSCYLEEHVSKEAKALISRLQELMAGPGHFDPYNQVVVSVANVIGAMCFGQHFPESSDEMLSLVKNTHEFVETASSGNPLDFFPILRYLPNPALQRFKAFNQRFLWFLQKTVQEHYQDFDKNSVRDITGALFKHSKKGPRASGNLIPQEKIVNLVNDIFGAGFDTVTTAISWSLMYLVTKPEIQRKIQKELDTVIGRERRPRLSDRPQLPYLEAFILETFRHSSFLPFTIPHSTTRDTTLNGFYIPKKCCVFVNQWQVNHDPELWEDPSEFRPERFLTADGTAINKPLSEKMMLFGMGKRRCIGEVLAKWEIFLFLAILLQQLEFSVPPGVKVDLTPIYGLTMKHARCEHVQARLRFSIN
compound,measurement,setting,value
"COc1ccc(CC(=O)O)cc1Oc1ccc(NC(=O)C(C)(C)C)cc1CSC(C)(C)C [Compound 1, 2-(3-(2-((tert-butylthio)methyl)-4-(2,2-dimethyl-propionylamino)phenoxy)-4-methoxyphenyl)acetic acid]",IC50,"guinea pig DP2 receptor; 0.2% guinea pig serum albumin, read-out: IC50, radioligand membrane binding on guinea pig DP2",0.0203 µM
same,IC50,"guinea pig DP2 receptor; average, without serum albumin, read-out: IC50, inhibition of radiolabeled PGD2 binding to guinea pig DP2",0.0106 µM
same,concentration at 24 h,"[1]; 24 hours after oral dose, each dose amount, below lower limit of quantitation, read-out: plasma Compound 1 concentration",< 0.04 µM
same,concentration at 3 h,[1]; 30 mg/kg,0.107 ± 0.0317 µM
same,concentration at 3 h,[1]; 60 mg/kg,0.372 ± 0.304 µM
same,concentration at 3 h,[1]; 100 mg/kg,0.361 ± 0.131 µM
same,IC50,"mouse DP2; 0.2% species-specific albumin, read-out: IC50, radioligand membrane binding on mouse DP2",0.0114 µM
same,IC50,"mouse DP2; without serum albumin, read-out: IC50, inhibition of radiolabeled PGD2 binding to mouse DP2",0.0097 µM
same,IC50,"rat DP2; 0.2% species-specific albumin, read-out: IC50, radioligand membrane binding on rat DP2",0.0104 µM
same,IC50,"rat DP2; without serum albumin, read-out: IC50, inhibition of radiolabeled PGD2 binding to rat DP2",0.007 µM
same,concentration at 1 h,[2]; 1 hr post-dose,1.36 µM
same,concentration at 2 h,"[2]; 2 hr post-dose, read-out: plasma exposure for Compound 1",0.46 µM
same,concentration at 4 h,"[2]; 4 hr post-dose, read-out: plasma exposure for Compound 1",0.21 µM
same,concentration at 6 h,"[2]; 6 hr post-dose, read-out: plasma exposure for Compound 1",0.09 µM
"COc1ccc(CC(=O)O)cc1Oc1ccc(NC(=O)C(C)(C)C)cc1CSC(C)(C)C [Compound 2, 2-(3-(2-((tert-butylthio)methyl)-4-(2,2-dimethyl-propionylamino)phenoxy)-4-methoxyphenyl)acetic acid, sodium salt]",24 hr PD response (inhibition of ex vivo ESC),"DP2 receptor; 500 mg single dose, 24 hr",~50%
same,pharmacodynamic dose response (ex vivo ESC inhibition),"DP2 receptor; >150 mg, at 0.5, 2 hr and 8 hr",maximal inhibition achieved
same,IC50,CYP1A2,> 25 µM
same,eosinophils and neutrophils in bronchoalveolar lavage fluid,[3]; 100 mg/kg PO,significantly reduced
same,total cellular influx in bronchoalveolar lavage fluid,"[3]; 30, 60, and 100 mg/kg PO, significant at 60 and 100 mg/kg, 23.5 hr post-dose",dose dependently inhibited
same,DK-PGD2-induced increase in blood leukocytes,"[3]; 30, 60, and 100 mg/kg, 2.5 hours post administration",blocked
same,tolerability,[4],well tolerated
